Literature values in patent US9358213B2, “Pharmaceutical compositions of duloxetine” (priority 2007, dated 2016).

## CNCC[C@H](Oc1cccc2ccccc12)c1cccs1 [Duloxetine]
Alkaline pH
  stability at alkaline pH: stable
pH of 1.0, within one hour
  dosage hydrolyzed to 1-naphthol: 50%
pH of 2.0, in one hour
  dosage degrades to 1-naphthol: 10%
pH of 4.0
  time for 10% degradation: up to 63 hours
